Assay type in all cases: cell-based
The target of one experiment is T1, rASCT2 (Rattus norvegicus, UniProt D3ZJ25).
T1 construct: expressed in transfected cells; host or cells: HEK293 (ATCC CRL-11268), transient transfection
T1 sequence (D3ZJ25 1-555): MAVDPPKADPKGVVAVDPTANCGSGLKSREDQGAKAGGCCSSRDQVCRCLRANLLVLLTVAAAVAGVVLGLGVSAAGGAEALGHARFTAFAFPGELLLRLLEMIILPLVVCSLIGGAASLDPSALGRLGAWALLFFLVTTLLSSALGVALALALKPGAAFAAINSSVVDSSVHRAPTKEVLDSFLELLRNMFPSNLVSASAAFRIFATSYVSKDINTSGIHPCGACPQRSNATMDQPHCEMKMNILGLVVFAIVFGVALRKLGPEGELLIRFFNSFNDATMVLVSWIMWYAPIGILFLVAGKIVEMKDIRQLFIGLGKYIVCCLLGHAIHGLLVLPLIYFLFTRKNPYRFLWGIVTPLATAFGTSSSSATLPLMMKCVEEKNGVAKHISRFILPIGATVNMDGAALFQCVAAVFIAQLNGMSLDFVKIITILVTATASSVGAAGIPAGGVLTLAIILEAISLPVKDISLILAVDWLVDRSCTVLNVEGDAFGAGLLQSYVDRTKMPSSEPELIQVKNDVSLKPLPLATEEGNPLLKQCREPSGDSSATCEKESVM
In words: Electrophysiology (whole-cell current recording) of transfected HEK293 cells, rASCT2. Particulars: apparent Ki in the absence of substrate, HEK293, mean ± SD; read-out: Ki rASCT2. The method in brief:
(§1)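 Apparent Ki values were derived by fitting dose-response currents to a Michaelis-Menten-like equation in the absence of substrate. Currents were recorded from transiently transfected HEK293 cells in whole-cell configuration, with 10 mM internal alanine for ASCT2 or 10 mM internal glutamate for EAAT1, NaSCN-based pipette solution and pH 7.40.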

A further experiment has as its target T2, hASCT2 (Homo sapiens, UniProt Q15758).
T2 construct: expressed in transfected cells; host or cells: HEK293 (ATCC CRL-11268), transient transfection
T2 sequence (Q15758 1-541): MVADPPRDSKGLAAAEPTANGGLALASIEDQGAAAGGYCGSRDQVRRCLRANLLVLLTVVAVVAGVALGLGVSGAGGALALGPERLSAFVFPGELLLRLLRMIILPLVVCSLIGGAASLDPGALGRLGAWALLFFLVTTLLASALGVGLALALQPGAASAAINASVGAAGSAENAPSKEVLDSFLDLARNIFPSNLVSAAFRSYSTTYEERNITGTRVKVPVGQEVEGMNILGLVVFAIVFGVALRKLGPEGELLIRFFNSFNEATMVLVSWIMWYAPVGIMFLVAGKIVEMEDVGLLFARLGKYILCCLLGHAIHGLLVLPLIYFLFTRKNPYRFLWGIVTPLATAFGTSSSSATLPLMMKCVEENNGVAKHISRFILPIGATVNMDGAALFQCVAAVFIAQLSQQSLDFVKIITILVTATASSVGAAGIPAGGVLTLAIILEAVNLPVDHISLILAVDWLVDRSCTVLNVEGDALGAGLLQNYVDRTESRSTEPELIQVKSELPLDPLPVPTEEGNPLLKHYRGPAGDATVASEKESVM
In words: Electrophysiology (whole-cell current recording) of transfected HEK293 cells, hASCT2. Particulars: apparent Ki in the absence of substrate, HEK293, mean ± SD; read-out: Ki hASCT2. In a few lines:
as §1

For another experiment, the target named is T3, EAAT1 (Homo sapiens, UniProt P43003).
T3 construct: expressed in transfected cells; host or cells: HEK293 (ATCC CRL-11268), transient transfection
As to the kind of experiment: Electrophysiology specificity experiment in transfected HEK293 cells, EAAT1. Conditions: apparent Ki, HEK293, internal solution 10 mM glutamate, mean ± SD. The procedure:
(§2) Human embryonic kidney 293 (HEK293, ATCC CRL-11268) cells were cultured in DMEM media supplemented with 10% (v v) fetal bovine serum (FBS), 2 mM glutamine, 1% penicillin streptomycin solution, 1 mM sodium pyruvate and non-essential amino acids. Cells were maintained at 37° C. in a fully humidified atmosphere containing 5% CO2. rASCT2, hASCT2, hASCT1, EAAT1, EAAT2, EAAC1, EAAT5 and YFP complementary DNAs were each used to transiently transfect HEK293 using POLYPLUS Jet-prime transfection reagent. Cells were analyzed using electrophysiological techniques 24-40 hours after transfection.
(§3) Stock solutions of inhibitor was prepared in dimethyl sulfoxide (DMSO) up to 100 mM. Dilutions to working concentrations were made using external buffer. […] For rASCT2, hASCT2 and hASCT1, external buffer contained 140 mM NaCl, 2 mM MgCl2, 2 mM CaCl2), and 10 mM HEPES, pH 7.40 while internal pipette solution comprised of 130 mM NaSCN, 2 mM MgCl2, 10 mM EGTA, 10 mM HEPES and 10 mM alanine, pH 7.40. For specificity experiments with EAAT1, EAAT2, EAAC1 and EAAT5, internal solution contained 10 mM glutamate instead of alanine. Compounds were applied to HEK293 cells expressing DNA of interest suspended from a current recording electrode in whole cell configuration through a rapid solution exchange device. Cells are immersed in external buffer bath used to dissolve the inhibitors. The open pipette resistance was between 3 and 6 MΩ. Series resistance was not compensated in these experiments due to relatively small currents. Currents traces were recorded using an Adams and List EPC7 amplifier and digitized using a Molecular Devices Digidata A/D converter.
(§4) Linear and nonlinear curve fitting of the experimental data were analyzed using MicroCal Origin software. Nonlinear dose-response relationships were fitted with a Michaelis-Menten-like equation to obtain apparent Ki values in the absence of substrate (see TABLE 2 for Ki values). The figures show representative current traces and dose-response curves for hACST2 and rASCT2, used to obtain Ki values in TABLE 2 for compound SN 40. At least four experiments were performed with at least three different cells. Error bars in all graphs, e.g., in FIG. 1B and FIG. 1C and tables (Ki values) represent mean±SD.

In the next experiment the target is T4, EAAT2 (Homo sapiens, UniProt P43004).
T4 construct: expressed in transfected cells; host or cells: HEK293 (ATCC CRL-11268), transient transfection
As to the kind of experiment: Electrophysiology specificity experiment in transfected HEK293 cells, EAAT2. Conditions: apparent Ki, HEK293, internal solution 10 mM glutamate, mean ± SD; read-out: Ki EAAT2. The procedure:
as §2, §3, §4

The next experiment concerns the target T5, EAAT5 (Homo sapiens, UniProt O00341).
T5 construct: expressed in transfected cells; host or cells: HEK293 (ATCC CRL-11268), transient transfection
As to the kind of experiment: Electrophysiology specificity experiment in transfected HEK293 cells, EAAT5. Particulars: apparent Ki, HEK293, internal solution 10 mM glutamate, mean ± SD. The procedure: as §2, §3, §4

Structures are written as SMILES.

T3 sequence (P43003 whole entry, species assumed): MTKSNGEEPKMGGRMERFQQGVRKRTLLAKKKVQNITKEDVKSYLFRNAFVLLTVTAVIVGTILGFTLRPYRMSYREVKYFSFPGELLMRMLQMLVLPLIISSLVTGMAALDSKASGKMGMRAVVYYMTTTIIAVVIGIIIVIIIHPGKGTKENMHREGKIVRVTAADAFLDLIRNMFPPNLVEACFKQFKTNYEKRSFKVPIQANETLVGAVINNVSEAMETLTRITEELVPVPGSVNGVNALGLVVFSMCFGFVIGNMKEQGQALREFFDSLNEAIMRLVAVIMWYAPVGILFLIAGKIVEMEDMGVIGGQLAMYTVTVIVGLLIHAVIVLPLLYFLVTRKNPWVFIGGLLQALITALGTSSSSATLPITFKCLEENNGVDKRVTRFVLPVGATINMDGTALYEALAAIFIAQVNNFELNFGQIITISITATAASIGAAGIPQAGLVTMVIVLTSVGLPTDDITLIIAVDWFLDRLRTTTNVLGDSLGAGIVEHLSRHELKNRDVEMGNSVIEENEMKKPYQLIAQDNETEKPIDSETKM
T4 sequence (P43004 whole entry, species assumed): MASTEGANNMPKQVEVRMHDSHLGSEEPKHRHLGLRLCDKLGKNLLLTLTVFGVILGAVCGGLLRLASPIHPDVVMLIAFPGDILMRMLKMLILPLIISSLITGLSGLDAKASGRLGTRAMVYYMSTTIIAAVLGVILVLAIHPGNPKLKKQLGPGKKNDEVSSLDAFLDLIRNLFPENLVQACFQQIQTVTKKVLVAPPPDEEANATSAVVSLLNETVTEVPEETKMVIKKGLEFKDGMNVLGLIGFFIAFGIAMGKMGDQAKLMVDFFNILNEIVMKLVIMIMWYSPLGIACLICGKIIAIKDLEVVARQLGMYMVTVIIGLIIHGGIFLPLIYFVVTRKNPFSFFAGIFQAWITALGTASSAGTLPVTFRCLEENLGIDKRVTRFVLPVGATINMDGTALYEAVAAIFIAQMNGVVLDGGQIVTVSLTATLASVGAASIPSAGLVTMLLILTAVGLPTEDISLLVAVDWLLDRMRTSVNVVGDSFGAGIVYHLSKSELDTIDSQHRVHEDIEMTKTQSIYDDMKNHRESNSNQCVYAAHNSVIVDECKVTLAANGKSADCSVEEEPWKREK
T5 sequence (O00341 whole entry, species assumed): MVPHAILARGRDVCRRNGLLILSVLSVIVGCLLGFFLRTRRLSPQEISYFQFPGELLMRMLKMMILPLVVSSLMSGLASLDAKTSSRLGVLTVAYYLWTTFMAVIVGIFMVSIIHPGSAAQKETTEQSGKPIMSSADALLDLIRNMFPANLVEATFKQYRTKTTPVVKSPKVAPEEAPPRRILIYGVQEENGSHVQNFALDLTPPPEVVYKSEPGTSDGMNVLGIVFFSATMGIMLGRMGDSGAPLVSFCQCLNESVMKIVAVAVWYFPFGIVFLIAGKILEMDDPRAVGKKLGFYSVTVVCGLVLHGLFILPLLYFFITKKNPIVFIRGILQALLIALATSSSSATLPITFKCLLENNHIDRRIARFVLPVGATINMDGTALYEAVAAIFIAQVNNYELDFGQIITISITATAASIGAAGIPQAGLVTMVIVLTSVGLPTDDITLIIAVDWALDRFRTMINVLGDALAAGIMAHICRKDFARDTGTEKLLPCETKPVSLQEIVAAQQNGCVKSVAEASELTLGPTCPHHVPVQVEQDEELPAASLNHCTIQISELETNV

`O=C(O[C@@H]1CN[C@H](C(=O)O)C1)c1ccc(-c2ccccc2)cc1` [SN 05]: the Ki was found to be 730 ± 100 nM at rASCT2; 870 ± 100 nM on hASCT2; 3700 ± 200 nM at EAAT1; 7250 ± 1500 nM on EAAT2; 2220 ± 500 nM at EAAT5.
For the compound `O=C(O[C@@H]1CN[C@H](C(=O)O)C1)c1ccc(-c2ccc(F)cc2)cc1` [SN 08], the Ki turned out to be 650 ± 40 nM at rASCT2; 740 ± 100 nM on hASCT2; 400 ± 100 nM on EAAT1; 1290 ± 300 nM at EAAT2; 2400 ± 700 nM on EAAT5.
For `O=C(O[C@@H]1CN[C@H](C(=O)O)C1)c1ccc(-c2ccc(C(F)(F)F)cc2)cc1` [SN 09], the Ki at rASCT2 came to 270 ± 50 nM; at hASCT2, 1050 ± 200 nM; on EAAT1, 1000 ± 300 nM; on EAAT2 it was 970 ± 100 nM; at EAAT5 it was 1090 ± 200 nM.
For the compound `Cc1ccccc1-c1ccc(C(=O)O[C@@H]2CN[C@H](C(=O)O)C2)cc1` [SN 10], the Ki was determined as 970 ± 100 nM on rASCT2; 1120 ± 100 nM at hASCT2; 1000 ± 100 nM at EAAT1; 1300 ± 100 nM on EAAT2; 2500 ± 900 nM at EAAT5.
For `Cc1ccccc1-c1ccc(C(=O)O[C@@H]2CN[C@H](C(=O)O)C2)cc1C` [SN 11] the same measures were 870 ± 100 nM, 9130 ± 1700 nM, 4750 ± 300 nM, 3140 ± 500 nM and 1170 ± 100 nM.
With `O=C(O[C@@H]1CN[C@H](C(=O)O)C1)c1ccc(-c2ccccc2)nc1` [SN 19], the Ki turned out to be 890 ± 200 nM on rASCT2, 7930 ± 900 nM on hASCT2, 10200 ± 2500 nM on EAAT1 and 7950 ± 1100 nM on EAAT2.
On to `N[C@@H](COC(=O)c1ccc(NC(=O)c2ccccc2)cc1)C(=O)O` [SN 25], for which the Ki on rASCT2 worked out at 4400 ± 1500 nM; on hASCT2 it was 22600 ± 3700 nM; at EAAT1, 9570 ± 1600 nM; at EAAT2, 11000 ± 1300 nM; at EAAT5, 12300 ± 3200 nM.
In the case of `O=C(O)[C@@H]1C[C@H](OCc2ccc(-c3ccccc3)cc2)CN1` [SN 39], the Ki on rASCT2 came to 1130 ± 100 nM; on hASCT2 it was 980 ± 100 nM; at EAAT1, 930 ± 100 nM; on EAAT2, 2090 ± 500 nM; on EAAT5, 1410 ± 300 nM.

These data come from patent US20230416199A1, “INHIBITORS OF AMINO ACID TRANSPORT” (ICAHN SCHOOL OF MEDICINE AT MOUNT SINAI, priority 2020, published 2023).
